Experimental data: PMC11087268, “A folate inhibitor exploits metabolic differences in Pseudomonas aeruginosa for narrow-spectrum targeting” (Nature Microbiology, 2024)
Read-outs that look alike come from different tables or passages of the source.

What was measured:
[1] = tested on: P. aeruginosa clinical isolates; format: cell-based, Pseudomonas aeruginosa; conditions: for clinical isolates resistant: 77 P. aeruginosa clinical isolates (55 CDC/FDA, 22 blood), 50 μg ml^−1, growth inhibition >80% = sensitive; for % Growth: 50ug/mL
Protocol: Percent growth was calculated by dividing the OD600 of fluorofolin antibiotic-treated wells by that of vehicle-only wells.

[2] = tested on: sheep red blood cells; assay: Haemolysis; format: cell-based; conditions: 1 h, vs Triton X-100 100% lysis
Protocol: Samples were treated at 37 °C with shaking for 1 h and then centrifuged. Supernatants were collected and absorbances were measured at 405 nm in a Tecan InfiniteM200 Pro microplate reader.

C[C@@H](O)[C@H]1C(=O)N2C(C(=O)O)=C(S[C@@H]3CN[C@H](C(=O)N(C)C)C3)[C@H](C)[C@H]12 [meropenem]
clinical isolates resistant [1]: 74.0% | % Growth ([1]; Isolate# 1): 113.227% | % Growth ([1]; Isolate# 2): 104.859% | % Growth ([1]; Isolate# 3): 93.4328% | % Growth ([1]; Isolate# 4): 45.5006% | % Growth ([1]; Isolate# 5): 93.4656% | % Growth ([1]; Isolate# 6): 77.5947% | % Growth ([1]; Isolate# 7): 101.901% | % Growth ([1]; Isolate# 8): 45.9194% | % Growth ([1]; Isolate# 9): 53.5808% | % Growth ([1]; Isolate# 10): 5.367% | % Growth ([1]; Isolate# 11): 99.5105% | % Growth ([1]; Isolate# 12): 98.7175% | % Growth ([1]; Isolate# 13): 37.9571% | % Growth ([1]; Isolate# 14): 104.583% | % Growth ([1]; Isolate# 15): 111.823% | % Growth ([1]; Isolate# 16): 82.8716% | % Growth ([1]; Isolate# 17): 101.338% | % Growth ([1]; Isolate# 18): 69.0131% | % Growth ([1]; Isolate# 19): 139.474% | % Growth ([1]; Isolate# 20): 102.365% | % Growth ([1]; Isolate# 21): 105.977% | % Growth ([1]; Isolate# 22): 100% | % Growth ([1]; Isolate# 23): 99.084% | % Growth ([1]; Isolate# 24): 101.66% | % Growth ([1]; Isolate# 25): 0.3832% | % Growth ([1]; Isolate# 26): 108.084% | % Growth ([1]; Isolate# 27): 90.2732% | % Growth ([1]; Isolate# 28): 50.4713% | % Growth ([1]; Isolate# 29): 81.8075% | % Growth ([1]; Isolate# 30): 25.5041% | % Growth ([1]; Isolate# 31): 2.581% | % Growth ([1]; Isolate# 32): 49.1417% | % Growth ([1]; Isolate# 33): 0% | % Growth ([1]; Isolate# 34): 7.796% | % Growth ([1]; Isolate# 35): 0.5421% | % Growth ([1]; Isolate# 36): 34.6796% | % Growth ([1]; Isolate# 37): 97.561% | % Growth ([1]; Isolate# 38): 159.815% | % Growth ([1]; Isolate# 39): 38.9532% | % Growth ([1]; Isolate# 40): 99.0807% | % Growth ([1]; Isolate# 41): 94.6179% | % Growth ([1]; Isolate# 42): 57.1194% | % Growth ([1]; Isolate# 43): 47.1218% | % Growth ([1]; Isolate# 44): 108.201% | % Growth ([1]; Isolate# 45): 95.4718% | % Growth ([1]; Isolate# 46): 98.3594% | % Growth ([1]; Isolate# 47): 114.345% | % Growth ([1]; Isolate# 48): 88.9096% | % Growth ([1]; Isolate# 49): 96.2021% | % Growth ([1]; Isolate# 50): 122.491% | % Growth ([1]; Isolate# 51): 46.991% | % Growth ([1]; Isolate# 52): 2.293% | % Growth ([1]; Isolate# 53): 3.543% | % Growth ([1]; Isolate# 54): 4.738% | % Growth ([1]; Isolate# 55): 0% | % Growth ([1]; Isolate# 56): 121.285% | % Growth ([1]; Isolate# 57): 61.1775% | % Growth ([1]; Isolate# 58): 74.7799% | % Growth ([1]; Isolate# 59): 114.529% | % Growth ([1]; Isolate# 60): 144.06% | % Growth ([1]; Isolate# 61): 63.8412% | % Growth ([1]; Isolate# 62): 95.6203% | % Growth ([1]; Isolate# 63): 0% | % Growth ([1]; Isolate# 64): 0.5899% | % Growth ([1]; Isolate# 65): 0.9518% | % Growth ([1]; Isolate# 66): 19.8024% | % Growth ([1]; Isolate# 67): 10.308% | % Growth ([1]; Isolate# 68): 0.6936% | % Growth ([1]; Isolate# 69): 5.952% | % Growth ([1]; Isolate# 70): 25.3374% | % Growth ([1]; Isolate# 71): 98.2336% | % Growth ([1]; Isolate# 72): 90.6634% | % Growth ([1]; Isolate# 73): 0% | % Growth ([1]; Isolate# 74): 128.066% | % Growth ([1]; Isolate# 75): 2.406% | % Growth ([1]; Isolate# 76): 11.0259% | % Growth ([1]; Isolate# 77): 28.4071%

gentamycin
clinical isolates resistant [1]: 35.0% | % Growth ([1]; Isolate# 1): 0.6518% | % Growth ([1]; Isolate# 2): 105.422% | % Growth ([1]; Isolate# 3): 61.3464% | % Growth ([1]; Isolate# 4): 179.172% | % Growth ([1]; Isolate# 5): 0% | % Growth ([1]; Isolate# 6): 89.7261% | % Growth ([1]; Isolate# 7): 110.349% | % Growth ([1]; Isolate# 8): 97.3307% | % Growth ([1]; Isolate# 9): 0% | % Growth ([1]; Isolate# 10): 0% | % Growth ([1]; Isolate# 11): 111.492% | % Growth ([1]; Isolate# 12): 30.6669% | % Growth ([1]; Isolate# 13): 9.611% | % Growth ([1]; Isolate# 14): 99.0331% | % Growth ([1]; Isolate# 15): 99.6274% | % Growth ([1]; Isolate# 16): 86.3373% | % Growth ([1]; Isolate# 17): 0.5763% | % Growth ([1]; Isolate# 18): 84.8111% | % Growth ([1]; Isolate# 19): 0% | % Growth ([1]; Isolate# 20): 92.394% | % Growth ([1]; Isolate# 21): 106.701% | % Growth ([1]; Isolate# 22): 98.4485% | % Growth ([1]; Isolate# 23): 0% | % Growth ([1]; Isolate# 24): 0% | % Growth ([1]; Isolate# 25): 0% | % Growth ([1]; Isolate# 26): 111.123% | % Growth ([1]; Isolate# 27): 88.2969% | % Growth ([1]; Isolate# 28): 0% | % Growth ([1]; Isolate# 29): 0% | % Growth ([1]; Isolate# 30): 1.897% | % Growth ([1]; Isolate# 31): 0% | % Growth ([1]; Isolate# 32): 104.806% | % Growth ([1]; Isolate# 33): 0% | % Growth ([1]; Isolate# 34): 0% | % Growth ([1]; Isolate# 35): 0% | % Growth ([1]; Isolate# 36): 0% | % Growth ([1]; Isolate# 37): 95.3633% | % Growth ([1]; Isolate# 38): 100.4% | % Growth ([1]; Isolate# 39): 0% | % Growth ([1]; Isolate# 40): 0% | % Growth ([1]; Isolate# 41): 0% | % Growth ([1]; Isolate# 42): 0% | % Growth ([1]; Isolate# 43): 82.8316% | % Growth ([1]; Isolate# 44): 5.792% | % Growth ([1]; Isolate# 45): 88.2389% | % Growth ([1]; Isolate# 46): 13.0256% | % Growth ([1]; Isolate# 47): 70.0551% | % Growth ([1]; Isolate# 48): 0% | % Growth ([1]; Isolate# 49): 0% | % Growth ([1]; Isolate# 50): 2.976% | % Growth ([1]; Isolate# 51): 0% | % Growth ([1]; Isolate# 52): 0% | % Growth ([1]; Isolate# 53): 0% | % Growth ([1]; Isolate# 54): 0.0248% | % Growth ([1]; Isolate# 55): 142.857% | % Growth ([1]; Isolate# 56): 0% | % Growth ([1]; Isolate# 57): 61.626% | % Growth ([1]; Isolate# 58): 0.9683% | % Growth ([1]; Isolate# 59): 34.5167% | % Growth ([1]; Isolate# 60): 0% | % Growth ([1]; Isolate# 61): 0% | % Growth ([1]; Isolate# 62): 0% | % Growth ([1]; Isolate# 63): 0% | % Growth ([1]; Isolate# 64): 0% | % Growth ([1]; Isolate# 65): 0% | % Growth ([1]; Isolate# 66): 0% | % Growth ([1]; Isolate# 67): 0% | % Growth ([1]; Isolate# 68): 0% | % Growth ([1]; Isolate# 69): 0.2922% | % Growth ([1]; Isolate# 70): 0% | % Growth ([1]; Isolate# 71): 0% | % Growth ([1]; Isolate# 72): 106.187% | % Growth ([1]; Isolate# 73): 0% | % Growth ([1]; Isolate# 74): 0% | % Growth ([1]; Isolate# 75): 0% | % Growth ([1]; Isolate# 76): 0.1836% | % Growth ([1]; Isolate# 77): 1.314%

CC(C)c1ccc(Cn2ccc3c4c(N)nc(NC5CC5)nc4ccc32)cc1 [SCH-79797]
% Hemolysis, Mean ([2]; 0.78125 ug/mL): 0.2789% | % Hemolysis, Mean ([2]; 1.5625 ug/mL): -0.7082% | % Hemolysis, Mean ([2]; 3.125 ug/mL): -0.9423% | % Hemolysis, Mean ([2]; 6.25 ug/mL): 0.9543% | % Hemolysis, Mean ([2]; 12.5 ug/mL): 20.9447% | % Hemolysis, Mean ([2]; 25 ug/mL): 53.6334% | % Hemolysis, Mean ([2]; 50 ug/mL): 64.7041%
